Data published in patent US7772192B2, “Compositions and methods for treatment of disease with acetylated disaccharides” (The Regents of the University of California, priority 2003, dated 2010).

Key:
LS180 cells = test: Toxicity and growth of LS180 cells in culture; type: cell-based, human
Experimental: Adhesion to selectins is altered in disaccharide-treated tumor cells. Treatment of LS180 cells with AcGnG-NM was not toxic to the cells up to 100 μM based on growth curves and exclusion of Trypan blue. […] LS180 colon carcinoma cells were “panned” onto wells precoated with recombinant E- or P-selectin as indicated. Open circles, adhesion to E-selectin; filled circles, adhesion to P-selectin. The extent of adhesion was normalized to the value obtained for cells not treated with disaccharide. […] Each experimental condition was done in quadruplicate and the average values±standard errors are given. […] Adhesion to P-selectin was more sensitive to the inhibitor than adhesion to E-selectin under these conditions. The inhibitory effect of AcGnG-NM was specific since incubation of cells with acetylated Galβ1,3Galβ-O-NM (AcGG-NM) had no effect on expression of sLe^X or adhesion to either selectin conjugate See FIG. 3. The maximum extent of inhibition approached the values obtained when the cells were pre-treated with sialidase or blocking antibody to the corresponding selectin.
A final consideration is the ability of selectins to participate in “arresting” newly circulating tumor cells in organ capillary beds. Entrapment of emboli may have important consequences on the eventual uptake and growth of tumor “seeds” into large metastatic tumor foci. […]

[1] = test system: LS180 colon carcinoma cells; test: Adhesion of activated human platelets to tumor cells (LS180); type: cell-based; conditions: 50 μM, 3 days, thrombin-activated human platelets
Experimental: Adhesion of activated human platelets to tumor cells. Tumor cells were seeded into 6-well plates (5×10^4/well), and allowed to grow into colonies in the presence or absence of 50 μM AcGnG-NM. After 3 days, platelets were isolated from 15 ml of normal human blood collected into 20% (v/v) Acid-Citrate-Dextrose (ACD) anticoagulant. A platelet-rich plasma was prepared by centrifugation and repeated washing using PSG buffer (5 mM HEPES, pH 6.8, 145 mM NaCl, 4 mM KCl, 0.5 mM sodium phosphate, 5.5 mM glucose, 0.5% BSA, and 25 nM prostaglandin E1 [Sigma]). The platelets were then labeled with Calcein AM (5 μM), and counted with a hemocytometer. Wells containing tumor cells were washed with HBSS, and 3×10^6 platelets were added in 1 ml of HBSS followed by activation with human thrombin (0.8 IU/well; Sigma). The plates were rocked for 10 min, and the wells were washed twice with HBSS, fixed with 5% formalin in HBSS, and analyzed by fluorescence microscopy. […]
Platelets bound to tumor cells were visualized by fluorescence microscopy (Nikon Diaphot) equipped with a digital camera (Nikon) linked to an Apple Macintosh computer with Adobe Photoshop software. The fluorescence image showing the platelets was superimposed on a phase-contrast picture of the cells and the number of attached platelets was quantified. […]

[2] = test system: mucin-like oligosaccharides that carry sLe^X determinants; conditions: among several disaccharides; cited from earlier work
[3] = test system: sLe^X on LS180 cell surface; test: ELISA with CSLEX-1 mAb of cell-surface sLe^X; type: cell-based, human; conditions: LS180 cells

## GlcNAcβ1,3Galβ-O-naphthalenemethanol [AcGnG-NM]
LS180 cells; up to 50 μM
  LS180 growth in culture: minimal effects
LS180 cells; up to 100 μM, growth curves and exclusion of Trypan blue
  toxicity to the cells: not toxic
[1]
  reduction of platelet adhesion: 60%
[2]
  potency as primer: highest potency
[3]
  expression of sLe^X on the cell surface: inhibited expression of sLe^X on the cell surface in a dose-dependent manner
